Assay results published in patent US20260116910A1, “POLYCYCLIC COMPOUNDS AND METHODS THEREOF” (HEPAITECH (BEIJING) BIOPHARMA TECHNOLOGY CO., LTD., priority 2021, published 2026).
Like-named read-outs stand apart in the source and are kept apart here.

How the values were obtained:
MRGPRX4 = MRGPRX4 (Homo sapiens, UniProt Q96LA9); assay: MRGPRX4 activation, Fluo-8 Ca2+ FLIPR assay in HEK293T cells stably expressing MRGPRX4; format: cell-based; conditions: for EC50: MRGPRX4 activation, Ca2+ fluorescence, no activation in tested range reported as III, read-out: Activity (EC50 μM)
MRGPRX4, sequence (Q96LA9 whole entry): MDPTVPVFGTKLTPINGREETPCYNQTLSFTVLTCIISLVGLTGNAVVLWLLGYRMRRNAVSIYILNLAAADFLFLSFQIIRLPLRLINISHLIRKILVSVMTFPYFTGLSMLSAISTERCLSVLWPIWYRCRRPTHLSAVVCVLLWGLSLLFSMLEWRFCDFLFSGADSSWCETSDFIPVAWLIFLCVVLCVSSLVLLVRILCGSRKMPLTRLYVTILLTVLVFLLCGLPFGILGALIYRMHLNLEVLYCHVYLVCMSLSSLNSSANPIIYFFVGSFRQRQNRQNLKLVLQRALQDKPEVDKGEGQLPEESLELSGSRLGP
Protocol: In some embodiments, cells were cultured in poly-D-Lys coated blacked walled, clear-bottom 96-well microplates. HEK293T cells stably expressing MRGPRX4 were cultured in DMEM medium supplemented with 10% FBS and 1% PS, at 37° C. in a humidified atmosphere with 5% CO2. Cells were detached by centrifuging (1000 rpm, 3 min). The pellet was re-suspended in medium, and cell density was adjusted to about 1×10^6 cells/mL. 100 μL suspension was seeded to each well of a microplates (cell plate). Cells in the microplates were cultured overnight. In the following day, cells were grown to higher than 95% density in each well.
Ca^2+ fluorescent dye loading: Fluo-8 AM (Screen Quest Fluo-8 AM Calcium Assay Kit, AAT Bioquest, cat. #: 21083) was diluted in HHBS buffer and adjusted to 2 μM (dye buffer). Medium in each well was changed into 50 μL dye buffer carefully. After incubation for 40-60 min under room temperature, the dye buffer was changed into 50 μL HHBS buffer.
The concentration of solution should be determined according to the protocol settings and experimental needs (e.g., Log[M]=−4, −5, −6, −7, −8, and −9). Prepare 2× serial dilution series of compounds (at least 75 μL per well).
A fluorescent signal baseline was measured using FLIPR®Tetra for 30 s. Then 50 μL of the chemical solution would be added to the cell plate. The fluorescent signal would be measured for another 150 s.
Activity of each compound was calculated by the fluorescence change (dF/F0). Curves were fitted to obtain EC50 values. In some embodiments, at least 3 repeats were performed to obtain the average values. For assessment of a compound, gradient diluted solutions of different concentrations were used to treat cells and corresponding responses were used to fit sigmoid function and to derive EC50 in Origin. In some embodiments, assessed concentrations were or included about 10^−4, 10^−4.5, 10^−5, 10^−5.5, 10^−6, 10^−6.5, 10^−7, 10^−8, and/or 10^−9 M; for example, in many instances, assessed concentrations included about 10^−5, 10^−6, 10^−7 and 10^−8 M. In some embodiments, assessed concentrations were about 10^−4, 10^−4.5, 10^−5, 10^−5.5, 10^−6, 10^−7, 10^−8, and 10^−9 M. In some embodiments, assessed concentrations were about 10^−4, 10^−5, 10^−6, 10^−7, 10^−8, and 10^−9 M. In some embodiments, assessed concentrations were about 10^−4, 10^−4.5, 10^−5, 10^−5.5, 10^−6, and 10^−7 M. In some embodiments, assessed concentrations were about 2000000, 1000000, 500000, 250000, 125000, 62500, 31250, 15625, 7813, 3906 nM. […] In some embodiments, assessed concentrations were about 30000, 10000, 3333, 1111, 370, 123, 41, 14, 4.6, 1.5 nM.

human FXR (NR1H4) = target: T1, human FXR (NR1H4) (Homo sapiens, UniProt Q96RI1); assay: Human FXR (NR1H4) agonist assessment, FXRE-NanoLuc reporter in HEK293T cells; format: cell-based; conditions: for EC50: read-out: EC50
T1 sequence (Q96RI1 1-476 isoform Q96RI1-1): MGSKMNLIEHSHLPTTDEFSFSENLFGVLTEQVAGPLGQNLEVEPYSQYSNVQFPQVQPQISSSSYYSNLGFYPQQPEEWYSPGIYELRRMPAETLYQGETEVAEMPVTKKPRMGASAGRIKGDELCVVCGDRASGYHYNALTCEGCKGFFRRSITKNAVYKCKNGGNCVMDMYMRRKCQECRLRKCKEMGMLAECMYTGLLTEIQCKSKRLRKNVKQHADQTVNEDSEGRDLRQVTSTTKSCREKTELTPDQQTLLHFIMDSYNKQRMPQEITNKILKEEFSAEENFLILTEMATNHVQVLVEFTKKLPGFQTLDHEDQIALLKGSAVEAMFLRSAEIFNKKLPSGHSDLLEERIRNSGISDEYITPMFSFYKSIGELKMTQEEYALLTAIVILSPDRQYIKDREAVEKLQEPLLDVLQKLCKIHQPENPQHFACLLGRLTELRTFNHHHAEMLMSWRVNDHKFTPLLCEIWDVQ
Protocol: As those skilled in the art appreciate, various technologies are available for assessment of FXR activation in accordance with the present disclosure. […] Human FXR (NR1H4) agonist assessment (see, e.g., Yu et al. eLife 2019; 8: e48431): HEK293T cells stably expressing human FXR and containing FXR response element (FXRE)-NanoLuc reporter were cultured in DMEM medium supplemented with 10% FBS and 1% PS, at 37° C. in a humidified atmosphere with 5% CO2. Cells were detached by centrifuging (1000 rpm, 3 min). The pellet was re-suspended in medium, and cell density was adjusted to about 1×10^6 cells/mL. 100 μL suspension was seeded to each well of a white-walled, clear-bottom 96-well microplates (cell plate). Cells in microplates were cultured overnight.
In the following day, cells were grown to higher than 95% density in each well. Culture medium was replaced, and compounds were added to the wells. 0.01% DMSO (v/v) served as negative control. Plates were incubated at 37° C. in 5% CO2 for 24 hr.
In the following day, a 10 μL aliquot of cell culture medium was removed from each well and combined with 40 μL culture medium plus […] assay buffer (containing 20 mM of the luciferase substrate coelenterazine). After 5 min incubation, luminescence was measured using an EnVision plate reader (PerkinElmer).
In some embodiments, gradient diluted solutions of several concentrations were used to treat cells and corresponding responses were used to fit sigmoid function and to derive EC50 in Origin.

[1] = FXR activation, HEK293T FXRE-NanoLuc reporter, 24 hr

Compound	Efficacy (maximum measured induction of NanoLuc, normalized to CDCA set as 100%) (human FXR (NR1H4); [1])	EC50 (human FXR (NR1H4); [1]) [µM]	other results
CC[C@H]1[C@@H](O)[C@@H]2[C@H](CC[C@]3(C)[C@@H]([C@H](C)CCC(=O)O)CC[C@@H]23)[C@@]2(C)CC[C@H](F)C[C@@H]12 [1-1]	C (100%<efficacy <=300%)	1 to 10	EC50 (MRGPRX4): > 100 µM
[2H]C1([2H])CC[C@@]2(C)[C@@H](C1)[C@@H](CC)[C@@H](O)[C@@H]1[C@@H]2CC[C@]2(C)[C@@H]([C@H](C)CCNC(=S)NS(=O)(=O)c3cccs3)CC[C@@H]12 [14-4]	–	< 1	MRGPRX4 activation, Average (MRGPRX4; E3-9, Conc. (Log[M]) −4.0): 0.061; MRGPRX4 activation, Average (MRGPRX4; E3-9, Conc. (Log[M]) −4.5): 0.020; MRGPRX4 activation, Average (MRGPRX4; E3-9, Conc. (Log[M]) −5.0): 0.013; MRGPRX4 activation, Average (MRGPRX4; E3-9, Conc. (Log[M]) −5.4): 0.018; MRGPRX4 activation, Average (MRGPRX4; E3-9, Conc. (Log[M]) −5.9): 0.013; MRGPRX4 activation, Average (MRGPRX4; E3-9, Conc. (Log[M]) −6.4): 0.020; MRGPRX4 activation, Average (MRGPRX4; E3-9, Conc. (Log[M]) −6.9): 0.015; MRGPRX4 activation, Average (MRGPRX4; E3-9, Conc. (Log[M]) −7.3): 0.015; MRGPRX4 activation, Average (MRGPRX4; E3-9, Conc. (Log[M]) −7.8): 0.008; MRGPRX4 activation, Average (MRGPRX4; E3-9, Conc. (Log[M]) −8.3): 0.015; EC50 (MRGPRX4): > 100 µM; Efficacy (maximum measured induction of NanoLuc, normalized to CDCA set as 100%) (human FXR (NR1H4)): C (key: A: efficacy >400%; B: 300%<efficacy <=400%; C: 100%<efficacy <=300%; D: efficacy <=100%)
CC[C@H]1[C@@H](O)[C@@H]2[C@H](CC[C@]3(C)[C@@H]([C@H](C)CCOC(=O)NS(=O)(=O)c4ccc5c(c4)CCC(C)(C)O5)CC[C@@H]23)[C@@]2(C)CCCC[C@@H]12 [19-1]	B (300%<efficacy <=400%)	< 1	–
CC[C@H]1[C@@H](O)[C@@H]2[C@H](CC[C@]3(C)[C@@H]([C@H](C)CCNC(=S)NS(=O)(=O)c4ccc(C(C)(C)CF)cc4)CC[C@@H]23)[C@@]2(C)CCCC[C@@H]12 [7-2]	–	< 1	Efficacy (maximum measured induction of NanoLuc, normalized to CDCA set as 100%) (human FXR (NR1H4)): B (key: A: efficacy >400%; B: 300%<efficacy <=400%; C: 100%<efficacy <=300%; D: efficacy <=100%)
CC[C@H]1[C@@H](O)[C@@H]2[C@H](CC[C@]3(C)[C@@H]([C@H](C)CCC(=O)Nc4nnn[nH]4)CC[C@@H]23)[C@@]2(C)CCCC[C@@H]12 [16-1]	–	1 to 10	Efficacy (maximum measured induction of NanoLuc, normalized to CDCA set as 100%) (human FXR (NR1H4)): B (key: A: efficacy >400%; B: 300%<efficacy <=400%; C: 100%<efficacy <=300%; D: efficacy <=100%)
CC[C@H]1[C@@H](O)[C@@H]2[C@H](CC[C@]3(C)[C@@H]([C@H](C)Cc4nnn[nH]4)CC[C@@H]23)[C@@]2(C)CCCC[C@@H]12 [16-2]	C (100%<efficacy <=300%)	< 1	–
CC[C@H]1[C@@H](O)[C@@H]2[C@H](CC[C@]3(C)[C@@H]([C@H](C)CCN)CC[C@@H]23)[C@@]2(C)CCC(F)(F)C[C@@H]12 [11-1]	C (100%<efficacy <=300%)	> 10	–
CC[C@H]1[C@@H](O)[C@@H]2[C@H](CC[C@]3(C)[C@@H]([C@H](C)CCN)CC[C@@H]23)[C@@]2(C)CCCC[C@@H]12 [6-1]	B (300%<efficacy <=400%)	< 1	–
C[C@H](CNC(=O)NS(=O)(=O)c1ccc(C(C)(C)CF)cc1)[C@H]1CC[C@H]2[C@@H]3CC[C@@H]4CCCC[C@]4(C)[C@H]3CC[C@]12C [23-1]	B (300%<efficacy <=400%)	1 to 10	–
CC[C@H]1[C@@H](O)[C@@H]2[C@H](CC[C@]3(C)[C@@H]([C@H](C)CCNC(=O)NS(=O)(=O)c4ccc(C(F)(F)F)cc4)CC[C@@H]23)[C@@]2(C)CCCC[C@@H]12 [5-19]	C (100%<efficacy <=300%)	< 1	–
CC[C@H]1[C@@H](O)[C@@H]2[C@H](CC[C@]3(C)[C@@H]([C@H](C)CCNC(=N)NS(=O)(=O)c4cccs4)CC[C@@H]23)[C@@]2(C)CCCC[C@@H]12 [17-2]	B (300%<efficacy <=400%)	< 1	–
CC[C@H]1[C@@H](O)[C@@H]2[C@H](CC[C@]3(C)[C@@H]([C@H](C)CCOC(=O)NS(=O)(=O)c4ccc(N5CCCCC5)nc4)CC[C@@H]23)[C@@]2(C)CCCC[C@@H]12 [19-2]	B (300%<efficacy <=400%)	< 1	–
C[C@H](CCNC(=O)NS(=O)(=O)c1ccc(C(C)(C)CF)cc1)[C@H]1CC[C@H]2[C@@H]3CC[C@@H]4CCCC[C@]4(C)[C@H]3CC[C@]12C [21-1]	–	1 to 10	Efficacy (maximum measured induction of NanoLuc, normalized to CDCA set as 100%) (human FXR (NR1H4)): B (key: A: efficacy >400%; B: 300%<efficacy <=400%; C: 100%<efficacy <=300%; D: efficacy <=100%)
CC[C@H]1[C@@H](O)[C@@H]2[C@H](CC[C@]3(C)[C@@H]([C@H](C)CCOC(=O)NS(=O)(=O)c4ccc(C(C)(C)CF)cc4)CC[C@@H]23)[C@@]2(C)CCCC[C@@H]12 [19-3]	A (efficacy >400%)	< 1	–
C[C@H](CCCOC(=O)NS(=O)(=O)c1ccc(C(C)(C)CF)cc1)[C@H]1CC[C@H]2[C@@H]3CC[C@@H]4CCCC[C@]4(C)[C@H]3CC[C@]12C [22-1]	–	1 to 10	Efficacy (maximum measured induction of NanoLuc, normalized to CDCA set as 100%) (human FXR (NR1H4)): B (key: A: efficacy >400%; B: 300%<efficacy <=400%; C: 100%<efficacy <=300%; D: efficacy <=100%)
CC[C@H]1[C@@H](O)[C@@H]2[C@H](CC[C@]3(C)[C@@H]([C@H](C)CCc4nnc(C(C)C)s4)CC[C@@H]23)[C@@]2(C)CCCC[C@@H]12 [15-1]	B (300%<efficacy <=400%)	1 to 10	–
CC[C@H]1[C@@H](O)[C@@H]2[C@H](CC[C@]3(C)[C@@H]([C@H](C)CCc4nnc(N)[nH]4)CC[C@@H]23)[C@@]2(C)CCCC[C@@H]12 [15-2]	C (100%<efficacy <=300%)	< 1	–
